Assay: Phase 1/2 MRZ + BEV and MRZ monotherapy in recurrent G4 MG: adverse events, DLT
Conditions: for Ataxia: Treatment Related Grade ≥3 AE, # patients / Confusional State: Treatment Related Grade ≥3 AE, # patients / Delusion: Treatment Related Grade ≥3 AE, # patients / Dyspnea: Treatment Related Grade ≥3 AE, # patients / Embolism: Treatment Related Grade ≥3 AE, # patients / Fall: Treatment Related Grade ≥3 AE, # patients / Fatigue: Treatment Related Grade ≥3 AE, # patients / Hallucination: Treatment Related Grade ≥3 AE, # patients / Headache: Treatment Related Grade ≥3 AE, # patients / Hypertension: Treatment Related Grade ≥3 AE, # patients / Hyponatremia: Treatment Related Grade ≥3 AE, # patients / Insomnia: Treatment Related Grade ≥3 AE, # patients / Intracranial Hemorrhage: Treatment Related Grade ≥3 AE, # patients / Optic Nerve Disorder: Treatment Related Grade ≥3 AE, # patients / Proteinuria: Treatment Related Grade ≥3 AE, # patients: attributed to labelled agent
[1] = MRZ 0.7 mg/m^2 + BEV, Cohort 2, N = 3
[2] = MRZ 0.7 mg/m^2 Cohort 2 (N = 3)
[3] = MRZ 0.8 mg/m^2 + BEV N = 27, MRZ 0.8 mg/m^2 monotherapy N = 30
[4] = MRZ 0.8 mg/m^2 + BEV, Cohorts 3 & 4, N = 27
[5] = MRZ 0.8 mg/m^2 + BEV, N = 27, related to the labelled drug
[6] = MRZ 0.8 mg/m^2 Cohorts 3 & 4 (N = 27)
[7] = MRZ 0.8 mg/m^2 monotherapy, N = 30

C[C@@]12OC(=O)[C@]1([C@@H](O)[C@@H]1C=CCCC1)NC(=O)[C@@H]2CCCl [marizomib]
Confusional State, Treatment Related Grade ≥3 AE, patients [1]: 0 | Delusion, Treatment Related Grade ≥3 AE, patients [1]: 0 | Dyspnea, Treatment Related Grade ≥3 AE, patients [1]: 0 | Embolism, Treatment Related Grade ≥3 AE, patients [1]: 0 | Fall, Treatment Related Grade ≥3 AE, patients [1]: 0 | Fatigue, Treatment Related Grade ≥3 AE, patients [1]: 0 | Hallucination, Treatment Related Grade ≥3 AE, patients [1]: 0 | Headache, Treatment Related Grade ≥3 AE, patients [1]: 0 | Hypertension, Treatment Related Grade ≥3 AE, patients [1]: 0 | Hyponatremia, Treatment Related Grade ≥3 AE, patients [1]: 0 | Insomnia, Treatment Related Grade ≥3 AE, patients [1]: 0 | Intracranial Hemorrhage, Treatment Related Grade ≥3 AE, patients [1]: 0 | Optic Nerve Disorder, Treatment Related Grade ≥3 AE, patients [1]: 0 | Proteinuria, Treatment Related Grade ≥3 AE, patients [1]: 0 | Ataxia, Treatment Related Grade ≥3 AE, patients (MRZ 0.7 mg/m^2 + BEV, Cohort 2, N = 3, related to the labelled drug): 0 | Ataxia: Treatment Related Grade ≥3 AE, # patients [2]: 0 | Confusional State: Treatment Related Grade ≥3 AE, # patients [2]: 0 | Delusion: Treatment Related Grade ≥3 AE, # patients [2]: 0 | Dyspnea: Treatment Related Grade ≥3 AE, # patients [2]: 0 | Embolism: Treatment Related Grade ≥3 AE, # patients [2]: 0 | Fall: Treatment Related Grade ≥3 AE, # patients [2]: 0 | Fatigue: Treatment Related Grade ≥3 AE, # patients [2]: 0 | Hallucination: Treatment Related Grade ≥3 AE, # patients [2]: 0 | Headache: Treatment Related Grade ≥3 AE, # patients [2]: 0 | Hypertension: Treatment Related Grade ≥3 AE, # patients [2]: 0 | Hyponatremia: Treatment Related Grade ≥3 AE, # patients [2]: 0 | Insomnia: Treatment Related Grade ≥3 AE, # patients [2]: 0 | Intracranial Hemorrhage: Treatment Related Grade ≥3 AE, # patients [2]: 0 | Optic Nerve Disorder: Treatment Related Grade ≥3 AE, # patients [2]: 0 | Proteinuria: Treatment Related Grade ≥3 AE, # patients [2]: 0 | Fatigue, treatment-related AE, patients (MRZ 0.8 mg/m^2 + BEV Cohorts 3 & 4, N = 27, related to the labelled drug (MRZ + BEV = related to both)): 19 (70.4%) | Patients with at Least One TEAE (MRZ 0.8 mg/m^2 + BEV Cohorts 3 & 4 N = 27, MRZ 0.8 mg/m^2 monotherapy N = 30): 29 (96.7%) ^[1] | Anaemia, adverse event, patients [3]: 6 (20.0%) | Ataxia, adverse event, patients [3]: 6 (20.0%) | Confusional state, adverse event, patients [3]: 7 (23.3%) | Constipation, adverse event, patients [3]: 9 (30.0%) | Diarrhoea, adverse event, patients [3]: 7 (23.3%) | Dizziness, adverse event, patients [3]: 5 (16.7%) | Dysarthria, adverse event, patients [3]: 5 (16.7%) | Dysphonia, adverse event, patients [3]: 1 (3.3%) | Epistaxis, adverse event, patients [3]: 2 (6.7%) | Fall, adverse event, patients [3]: 4 (13.3%) | Fatigue, adverse event, patients [3]: 19 (63.3%) | Hallucination, adverse event, patients [3]: 12 (40.0%) | Headache, adverse event, patients [3]: 12 (40.0%) | Hyperglycaemia, adverse event, patients [3]: 8 (27.6%) | Hypertension, adverse event, patients [3]: 4 (13.3%) | Hypokalemia, adverse event, patients [3]: 8 (27.6%) | Infusion site pain, adverse event, patients [3]: 3 (10.0%) | Insomnia, adverse event, patients [3]: 14 (46.7%) | Nausea, adverse event, patients [3]: 11 (36.7%) | Platelet count decreased, adverse event, patients [3]: 7 (23.3%) | Vomiting, adverse event, patients [3]: 9 (30.0%) | Confusional State, Treatment Related Grade ≥3 AE, patients [4]: 0 | Delusion, Treatment Related Grade ≥3 AE, patients [4]: 1 | Dyspnea, Treatment Related Grade ≥3 AE, patients [4]: 1 | Embolism, Treatment Related Grade ≥3 AE, patients [4]: 0 | Fall, Treatment Related Grade ≥3 AE, patients [4]: 1 | Fatigue, Treatment Related Grade ≥3 AE, patients [4]: 1 | Hallucination, Treatment Related Grade ≥3 AE, patients [4]: 1 | Headache, Treatment Related Grade ≥3 AE, patients [4]: 3 | Hypertension, Treatment Related Grade ≥3 AE, patients [4]: 0 | Hyponatremia, Treatment Related Grade ≥3 AE, patients [4]: 1 | Insomnia, Treatment Related Grade ≥3 AE, patients [4]: 1 | Intracranial Hemorrhage, Treatment Related Grade ≥3 AE, patients [4]: 0 | Optic Nerve Disorder, Treatment Related Grade ≥3 AE, patients [4]: 0 | Proteinuria, Treatment Related Grade ≥3 AE, patients [4]: 0 | Ataxia, Treatment Related Grade ≥3 AE, patients (MRZ 0.8 mg/m^2 + BEV, Cohorts 3 & 4, N = 27, related to the labelled drug): 1 | Anaemia, treatment-related AE, patients [5]: 5 (18.5%) | Ataxia, treatment-related AE, patients [5]: 7 (25.9%) | Confusional state, treatment-related AE, patients [5]: 7 (25.9%) | Constipation, treatment-related AE, patients [5]: 5 (18.5%) | Diarrhoea, treatment-related AE, patients [5]: 8 (29.6%) | Dizziness, treatment-related AE, patients [5]: 8 (29.6%) | Dysphonia, treatment-related AE, patients [5]: 1 (3.7%) | Epistaxis, treatment-related AE, patients [5]: 0 (0.0%) | Fall, treatment-related AE, patients [5]: 3 (11.1%) | Hallucination, treatment-related AE, patients [5]: 12 (44.4%) | Headache, treatment-related AE, patients [5]: 12 (44.4%) | Hypertension, treatment-related AE, patients [5]: 1 (3.7%) | Infusion site pain, treatment-related AE, patients [5]: 4 (14.8%) | Muscular weakness, treatment-related AE, patients [5]: 3 (11.1%) | Nausea, treatment-related AE, patients [5]: 17 (63.0%) | Platelet count decreased, treatment-related AE, patients [5]: 2 (7.4%) | Stomatitis, treatment-related AE, patients [5]: 3 (11.1%) | Upper-airway cough syndrome, treatment-related AE, patients [5]: 0 (0.0%) | Vomiting, treatment-related AE, patients [5]: 15 (55.6%) | Ataxia: Treatment Related Grade ≥3 AE, # patients [6]: 1 | Confusional State: Treatment Related Grade ≥3 AE, # patients [6]: 0 | Delusion: Treatment Related Grade ≥3 AE, # patients [6]: 1 | Dyspnea: Treatment Related Grade ≥3 AE, # patients [6]: 1 | Embolism: Treatment Related Grade ≥3 AE, # patients [6]: 0 | Fall: Treatment Related Grade ≥3 AE, # patients [6]: 1 | Fatigue: Treatment Related Grade ≥3 AE, # patients [6]: 1 | Hallucination: Treatment Related Grade ≥3 AE, # patients [6]: 1 | Headache: Treatment Related Grade ≥3 AE, # patients [6]: 3 | Hypertension: Treatment Related Grade ≥3 AE, # patients [6]: 0 | Hyponatremia: Treatment Related Grade ≥3 AE, # patients [6]: 1 | Insomnia: Treatment Related Grade ≥3 AE, # patients [6]: 1 | Intracranial Hemorrhage: Treatment Related Grade ≥3 AE, # patients [6]: 0 | Optic Nerve Disorder: Treatment Related Grade ≥3 AE, # patients [6]: 0 | Proteinuria: Treatment Related Grade ≥3 AE, # patients [6]: 0 | Anaemia, MRZ related AE, patients [7]: 5 (16.7% | Ataxia, MRZ related AE, patients [7]: 5 (16.7%) | Confusional state, MRZ related AE, patients [7]: 6 (20.0%) | Constipation, MRZ related AE, patients [7]: 6 (20.0%) | Diarrhoea, MRZ related AE, patients [7]: 7 (23.3) | Dizziness, MRZ related AE, patients [7]: 3 (10.0%) | Dysphonia, MRZ related AE, patients [7]: 0 | Epistaxis, MRZ related AE, patients [7]: 1 (3.3%) | Fall, MRZ related AE, patients [7]: 1 (3.3%) | Fatigue, MRZ related AE, patients [7]: 18 (60.0%) | Hallucination, MRZ related AE, patients [7]: 11 (36.7%) | Headache, MRZ related AE, patients [7]: 11 (36.7%) | Infusion site pain, MRZ related AE, patients [7]: 2 (6.7%) | Muscular weakness, MRZ related AE, patients [7]: 0 | Nausea, MRZ related AE, patients [7]: 9 (30.0%) | Platelet count decreased, MRZ related AE, patients [7]: 0 | Stomatitis, MRZ related AE, patients [7]: 0 | Upper-airway cough syndrome, MRZ related AE, patients [7]: 0 | Vomiting, MRZ related AE, patients [7]: 7 (23.3)
